From PMC5735979, “Total Coumarins from Hydrangea paniculata Show Renal Protective Effects in Lipopolysaccharide-Induced Acute Kidney Injury via Anti-inflammatory and Antioxidant Activities” (Frontiers in Pharmacology, 2017)

Columns and labels:
[1] = test system: streptozotocin-induced diabetic nephropathy; parameters: method as in Zhang et al., 2012; conditions: ref Zhang et al., 2012; cited from earlier work
[2] = Pharmacokinetics study after single oral dose of HP; format: in vivo, C57BL/6 mice; conditions: male, C57BL/6, mouse, in vivo, mice, n = 5
Method: All of the animals were fasted for 12 h before receiving HP and were then allowed to eat for 4 h after administration. The dosing solutions used for the animal studies were prepared by dissolving the required amounts of HP in distilled water. […] The plasma was separated and stored at 2–8°C until analysis. […] Louis, MO, USA) and then mixed with 180 μL of acetonitrile (Merck, Darmstadt, Germany) to precipitate protein. After centrifugation, aliquots (10 μL each) of the supernatant were used for analysis. […] The mobile phase consisted of solvent A [0.1% formic acid (Dikma Technologies, Inc., CA, USA) in water] and solvent B [0.1% formic acid in methanol (Merck)]. The analytes were eluted at a flow rate of 0.2 mL/min, with the following gradient elution: from 0 to 0.6 min, 20% B; linear increase to 95% B in 0.2 min; 95% B for 4 min, decrease to 20% B in 0.2 min; and stabilization at initial conditions for 6 min. The mass spectrometer was set for multiple reaction monitoring and was operated in a positive-ion mode with an electrospray ionization source. Nitrogen was used as the curtain gas and the collision gas. The ion-spray voltage was set at 5,500 V, and the gas temperature at 500°C.

[3] = test system: cationized BSA-induced membranous glomerulitis; parameters: method as in Zhang et al., 2013; conditions: ref Zhang et al., 2013; cited from earlier work
[4] = plasma, single oral dose of 50 mg/kg HP

Structure (SMILES): O=c1ccc2ccc(O[C@@H]3O[C@H](CO)[C@@H](O)[C@H](O)[C@H]3O)cc2o1 [Skimmin, skimmin]
- progression of streptozotocin-induced diabetic nephropathy [1]: could slow the progression
- concentration at 0.08 h ([2]; 0.08 h after single oral dose of 50 mg/kg HP, mean ± SD, read-out: Blood drug concentration): 7.5 ± 2.94 µM
- concentration at 0.25 h ([2]; 0.25 h after single oral dose of 50 mg/kg HP, mean ± SD, read-out: Blood drug concentration): 14.2 ± 3.71 µM
- concentration at 0.5 h ([2]; 0.5 h after single oral dose of 50 mg/kg HP, mean ± SD, read-out: Blood drug concentration): 12.6 ± 2.12 µM
- concentration at 1 h ([2]; 1 h after single oral dose of 50 mg/kg HP, mean ± SD, read-out: Blood drug concentration): 7.41 ± 1.53 µM
- concentration at 1.5 h ([2]; 1.5 h after single oral dose of 50 mg/kg HP, mean ± SD, read-out: Blood drug concentration): 4.44 ± 0.89 µM
- concentration at 2 h ([2]; 2 h after single oral dose of 50 mg/kg HP, mean ± SD, read-out: Blood drug concentration): 3.64 ± 0.94 µM
- concentration at 3 h ([2]; 3 h after single oral dose of 50 mg/kg HP, mean ± SD, read-out: Blood drug concentration): 2.37 ± 3.51 µM
- concentration at 4 h ([2]; 4 h after single oral dose of 50 mg/kg HP, mean ± SD, read-out: Blood drug concentration): 1.16 ± 1.11 µM
- concentration at 8 h ([2]; 8 h after single oral dose of 50 mg/kg HP, mean ± SD, read-out: Blood drug concentration): 0.17 ± 0.22 µM
- concentration at 12 h ([2]; 12 h after single oral dose of 50 mg/kg HP, mean ± SD, read-out: Blood drug concentration): 0.05 ± 0.02 µM
- half-life ([2]; elimination half-life, plasma, single oral dose of 50 mg/kg HP): 1.55 h
- AUC(0-inf) [2, 4]: 23.4 µM·h
- AUC(0-t) [2, 4]: 23.3 µM·h
- Cmax [2, 4]: 14.2 µM
- Tmax [2, 4]: 0.25 h
- MRT last ([2]; plasma, single oral dose of 50 mg/kg HP, read-out: MRT(0−t)): 1.75 h
- MRT inf ([2]; plasma, single oral dose of 50 mg/kg HP, read-out: MRT(0−∞)): 1.81 h
- progression of cationized BSA-induced membranous glomerulitis [3]: could slow the progression
